Source: ChEMBL document CHEMBL5465560, “Selectivity Literature for EUbOPEN Chemogenomic Library” (2024)

Assays:
[1] = molecular target: T1, Dual specificity tyrosine-phosphorylation-regulated kinase 2 (Homo sapiens) (UniProt Q92630); assay: Selectivity interaction (Kinase panel (DSF assay)) EUB0001558a DYRK2
T1 sequence (whole entry): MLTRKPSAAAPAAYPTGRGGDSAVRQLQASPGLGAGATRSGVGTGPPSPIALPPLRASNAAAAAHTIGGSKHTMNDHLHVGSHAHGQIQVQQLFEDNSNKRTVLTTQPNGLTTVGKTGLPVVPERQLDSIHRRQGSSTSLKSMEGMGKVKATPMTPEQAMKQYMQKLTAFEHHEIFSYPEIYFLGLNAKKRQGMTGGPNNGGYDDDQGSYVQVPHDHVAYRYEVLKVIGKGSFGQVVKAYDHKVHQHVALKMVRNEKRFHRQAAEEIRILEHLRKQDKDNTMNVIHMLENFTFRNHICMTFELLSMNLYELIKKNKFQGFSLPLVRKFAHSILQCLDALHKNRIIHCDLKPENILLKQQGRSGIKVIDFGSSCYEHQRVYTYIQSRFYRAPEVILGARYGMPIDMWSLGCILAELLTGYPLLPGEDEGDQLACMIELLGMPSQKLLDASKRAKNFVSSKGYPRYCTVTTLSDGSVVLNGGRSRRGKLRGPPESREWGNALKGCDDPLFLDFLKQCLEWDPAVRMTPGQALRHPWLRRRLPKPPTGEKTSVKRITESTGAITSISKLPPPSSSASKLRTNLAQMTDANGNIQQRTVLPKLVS

[2] = molecular target: Serine/threonine-protein kinase 10 (Homo sapiens) (UniProt O94804); details: at 10 µM
[3] = molecular target: T2, SNF-related serine/threonine-protein kinase (Homo sapiens) (UniProt Q9NRH2); assay: Selectivity interaction (KinomeScan (DiscoverX)) EUB0000607a SNRK; details: at 10 µM
T2 sequence (whole entry): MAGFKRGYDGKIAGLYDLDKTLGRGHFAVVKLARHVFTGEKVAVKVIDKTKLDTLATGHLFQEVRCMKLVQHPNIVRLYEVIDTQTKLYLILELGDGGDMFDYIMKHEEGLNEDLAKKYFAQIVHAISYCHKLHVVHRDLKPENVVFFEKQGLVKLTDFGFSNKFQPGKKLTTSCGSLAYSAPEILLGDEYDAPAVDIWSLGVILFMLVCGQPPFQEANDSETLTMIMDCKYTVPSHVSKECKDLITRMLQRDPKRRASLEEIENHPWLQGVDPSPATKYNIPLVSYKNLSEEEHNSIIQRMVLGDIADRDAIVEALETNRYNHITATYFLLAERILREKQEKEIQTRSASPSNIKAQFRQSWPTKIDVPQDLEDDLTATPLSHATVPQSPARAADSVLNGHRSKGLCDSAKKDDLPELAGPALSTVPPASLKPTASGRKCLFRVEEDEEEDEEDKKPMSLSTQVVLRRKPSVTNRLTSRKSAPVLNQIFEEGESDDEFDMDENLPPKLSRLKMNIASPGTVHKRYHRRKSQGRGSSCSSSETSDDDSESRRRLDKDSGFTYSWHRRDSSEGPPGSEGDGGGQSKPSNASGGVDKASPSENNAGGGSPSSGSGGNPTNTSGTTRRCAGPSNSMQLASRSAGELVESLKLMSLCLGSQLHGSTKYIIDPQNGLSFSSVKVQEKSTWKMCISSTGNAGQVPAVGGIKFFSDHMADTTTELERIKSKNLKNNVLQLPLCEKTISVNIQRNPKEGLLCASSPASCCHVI

[4] = molecular target: T3, cGMP-dependent protein kinase 1 (Homo sapiens) (UniProt Q13976); assay: Selectivity interaction (KinomeScan (DiscoverX)) EUB0000595a PRKG1; details: at 10 µM
T3 sequence (whole entry): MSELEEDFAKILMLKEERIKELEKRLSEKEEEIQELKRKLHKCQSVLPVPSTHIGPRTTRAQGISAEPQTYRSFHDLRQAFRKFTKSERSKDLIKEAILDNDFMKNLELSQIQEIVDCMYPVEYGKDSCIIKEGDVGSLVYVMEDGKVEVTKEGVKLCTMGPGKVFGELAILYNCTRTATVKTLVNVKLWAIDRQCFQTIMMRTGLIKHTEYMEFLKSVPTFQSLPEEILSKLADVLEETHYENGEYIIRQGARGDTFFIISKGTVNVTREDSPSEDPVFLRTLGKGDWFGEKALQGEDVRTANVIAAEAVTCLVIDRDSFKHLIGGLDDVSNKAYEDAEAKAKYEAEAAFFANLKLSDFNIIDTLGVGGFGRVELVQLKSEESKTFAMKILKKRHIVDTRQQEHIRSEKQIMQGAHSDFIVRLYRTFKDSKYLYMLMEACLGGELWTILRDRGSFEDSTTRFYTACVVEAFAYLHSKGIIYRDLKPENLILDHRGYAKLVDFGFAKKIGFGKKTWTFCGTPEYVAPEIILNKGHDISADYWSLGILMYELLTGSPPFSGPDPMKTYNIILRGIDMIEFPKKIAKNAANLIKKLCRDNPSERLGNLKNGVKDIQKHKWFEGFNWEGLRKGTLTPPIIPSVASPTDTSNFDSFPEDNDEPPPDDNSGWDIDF

Serine/threonine-protein kinase 10 (Homo sapiens), sequence (O94804 whole entry, looked up): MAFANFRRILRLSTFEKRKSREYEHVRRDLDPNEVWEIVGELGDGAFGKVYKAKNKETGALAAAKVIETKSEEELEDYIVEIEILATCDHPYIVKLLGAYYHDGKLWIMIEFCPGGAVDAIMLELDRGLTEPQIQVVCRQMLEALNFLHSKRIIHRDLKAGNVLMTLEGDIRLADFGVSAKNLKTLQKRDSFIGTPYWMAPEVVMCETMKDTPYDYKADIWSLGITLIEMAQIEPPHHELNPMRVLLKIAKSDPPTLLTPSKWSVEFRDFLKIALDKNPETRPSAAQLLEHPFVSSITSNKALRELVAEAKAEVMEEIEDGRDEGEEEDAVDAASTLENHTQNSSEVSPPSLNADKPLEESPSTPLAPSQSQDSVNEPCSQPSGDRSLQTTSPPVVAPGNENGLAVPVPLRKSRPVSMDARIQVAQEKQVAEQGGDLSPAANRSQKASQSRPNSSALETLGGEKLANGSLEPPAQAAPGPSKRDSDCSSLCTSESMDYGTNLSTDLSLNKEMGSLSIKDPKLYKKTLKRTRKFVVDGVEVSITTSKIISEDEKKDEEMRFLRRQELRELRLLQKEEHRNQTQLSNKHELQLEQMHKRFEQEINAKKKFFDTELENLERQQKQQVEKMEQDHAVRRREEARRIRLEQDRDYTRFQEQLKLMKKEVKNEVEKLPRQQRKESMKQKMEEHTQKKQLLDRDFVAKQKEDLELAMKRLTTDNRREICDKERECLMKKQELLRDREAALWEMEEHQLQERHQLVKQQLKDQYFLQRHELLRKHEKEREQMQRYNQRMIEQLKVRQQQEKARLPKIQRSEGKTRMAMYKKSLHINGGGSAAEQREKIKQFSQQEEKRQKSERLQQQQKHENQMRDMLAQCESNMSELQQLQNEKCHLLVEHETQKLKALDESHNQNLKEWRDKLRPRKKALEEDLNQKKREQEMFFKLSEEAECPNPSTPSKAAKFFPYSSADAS

In the case of `CC(C)(O)[C@H](F)CN1Cc2cc(NC(=O)c3cnn4cccnc34)c(N3CCOCC3)cc2C1=O`, the dTM [1] is reported as 5 K.

In the case of `Cc1cc([C@@H](C)Nc2ccccc2C(=O)O)c2nc(N3CCOCC3)cc(=O)n2c1` [AZD-6482], the % of control [2] is reported as 100%.

Work on `CNC(=O)Nc1ccc(-c2nc(N3CC4CCC(C3)O4)c3cnn(C4CCC5(CC4)OCCO5)c3n2)cc1` yielded a % of control [3] of 100%.

With `COCC(=O)NC/C=C/c1ccc2ncnc(Nc3ccc(Oc4ccc(C)nc4)c(C)c3)c2c1` [CP-724714] the % of control [4] was 100%.
